From US8697747B2, “Enhancing coagulation or reducing fibrinolysis” (THe UAB Research Foundation, priority 2009, dated 2014) come the findings set out here.

In one test the test system is rat plasma. Description: Thrombelastography in rat plasma with or without tPA. Format: biochemical. On the procedure:
Two sets of two Sprague Dawley outbred male rats were anesthetized with ketamine and xylazine and had blood drawn via cardiac puncture, pooled in two batches, and anticoagulated 1:9 with 3.2% sodium citrate. Two male New Zealand White rabbits were sedated with acepromazine and had blood collected via central ear artery and similarly anticoagulated. Blood was centrifuged at 3000×g for 15 min, and the plasma stored in two batches until analyzed. The final volume for thrombelastographic plasma sample mixtures was 359.6 μL. Sample composition consisted of 316 μL of plasma; 10 μL of tissue factor reagent (0.1% final concentration in dH2O; Instrumentation Laboratory, Lexington, Mass.); 10 μL of dH2O or tissue-type plasminogen activator (tPA, 580 U/μg, Genentech, Inc., San Francisco, Calif.) for a final activity of 2000 U/mL for rat plasma or 300 IU/mL for rabbit plasma; 3.6 μL of dimethyl sulfoxide (DMSO) or DMSO with CORM-2 (100 μM final concentration; Sigma-Aldrich, St. Louis, Mo.); and 20 μL of 200 mM CaCl2. The tPA activity for each species was determined with pilot data to obtain reproducible lysis within 15 min. There was no appreciable lysis in rat plasma at 100, 300, or 1000 U/mL tPA. Plasma sample mixtures were placed in a disposable cup in a computer-controlled THROMBELASTOGRAPH® hemostasis system (Model 5000, Haemoscope Corp., Niles, Ill.), with addition of CaCl2 as the last step to initiate clotting. In experiments without tPA, data were collected until clot strength (maximum amplitude) was stable. In experiments with tPA, data derived from the second rabbit plasma samples were collected for 60 min whereas data obtained with the second rat plasma samples were collected for 15 min. Thrombelastographic variables were determined at 39° C. as previously described in Examples 1, 2, and 4. Data were statistically compared with unpaired Student's t-test.

Test [1] has as its system plasma from donors treated with warfarin. Description: Thrombelastography/CLSM in plasma of warfarin-treated donors with or without tPA. Format: biochemical, human. The note with it: warfarin-treated subjects, tPA 100 IU/mL; 100 μM CORM-2. On the procedure:
Pooled normal plasma (George King Bio-Medical, Overland Park, Kans.) anticoagulated with sodium citrate was utilized for experimentation. […] Plasma anticoagulated with sodium citrate procured from anonymous donors treated with warfarin was also obtained from the same vendor.
Plasma sample composition of experiments without tPA addition. The final volume for all subsequently described plasma sample mixtures was 359.6 μL. Sample composition consisted of 326 μL of plasma, 10 μL of tissue factor reagent (0.1% final concentration in dH2O; Instrumentation Laboratory, Lexington, Mass.), 3.6 μL of dimethyl sulfoxide (DMSO) or DMSO with CORM-2 (100 μM final concentration; Sigma-Aldrich, St. Louis, Mo.), and 20 μL of 200 mM CaCl2. Tissue factor stock was kept on ice prior to use and was remade every two hours. […] DMSO was added to dry CORM-2 just prior to placement into the plasma mixture. Six replicate experiments were performed with pooled normal plasma with or without CORM-2 added, whereas plasma obtained from subjects treated with warfarin underwent singlicate experiments with or without CORM-2 exposure.
Plasma sample composition of experiments with tPA addition. […]
Clot Lifespan Model Analyses. […] Time to maximum rate of lysis (TMRL): This is the time interval (sec) measured from the time of maximum strength to the time when the velocity of clot disintegration is maximal. […]

The mark [2] stands for this setting: 2000 U/ml tPA, 100 μM CORM-2, mean ± SD, n=4.
[3] abbreviates: 2000 U/ml tPA, 100 μM vs 0 μM CORM-2.
Setting [4] is: no tPA, 100 μM CORM-2, mean ± SD, n=4.

As for `[C-]#[O+].[C-]#[O+].[C-]#[O+].[C-]#[O+].[C-]#[O+].[C-]#[O+].[Cl][Ru][Cl].[Cl][Ru][Cl]` [CORM-2, tricarbonyldichlororuthenium (II) dimer], in the test on rat plasma (setting [2]), the “ACL (area under the curve of lysis)” value is 0 ± 0 −dynes/cm^2, the “MRL (maximum rate of lysis)” value was 0.0 ± 0.0 −dynes/cm^2/sec, the “MRTG (maximum rate of thrombus generation)” value is listed as 14.7 ± 0.6 dynes/cm^2/sec and the “TMRTG (time to maximum rate of thrombus generation)” value amounted to 1.5 ± 0.1 min. Moreover, the “TTG (total thrombus generation)” value in the test with rat plasma (setting [2]) stood at 230 ± 6 dynes/cm^2. Moreover, the “TMRL (time to maximum rate of lysis)” value in the test with rat plasma (2000 U/ml tPA, 100 μM CORM-2, n=4) is “No Lysis”. Further, in the test with rat plasma (setting [3]), the “Percent Change of ACL” value is listed as −100%, the “Percent Change of MRL” value is given as −100%, the “Percent Change of MRTG” value was determined as 29% and the “Percent Change of TMRTG” value is reported as 0%. In the test with rat plasma (setting [3]), the “Percent Change of TTG” value was found to be 23%. Besides, in the test on rat plasma (setting [4]), the “MRTG (maximum rate of thrombus generation)” value was found to be 14.7 ± 0.6 dynes/cm^2/sec, the “TMRTG (time to maximum rate of thrombus generation)” value is 1.5 ± 0.1 min and the “TTG (total thrombus generation)” value is 230 ± 6 dynes/cm^2. Besides, in the test on rat plasma (no tPA, 100 μM vs 0 μM CORM-2), the “Percent Change of MRTG” value is reported as 29%, the “Percent Change of TMRTG” value was found to be 0% and the “Percent Change of TTG” value came to 23%. In addition, in test [1], the “effect on clot lifespan” value is “The clot lifespan was increased in all subjects” and the “increase in MRL, % of baseline values” is 11-181%.
